Five molecules from PubChem BioAssay AID1918934 (Molecular Pharmacology Branch, DTP, NCI, 2023) can be followed below.

The test deals with 292921-168-R-J2-PDC complex spheroid viability. In words: Anticancer human tumor 292921-168-R-J2-PDC patient-derived pancreatic carcinoma cell line growth inhibition. Particulars: for viability, T/C: stronger effect = lower value. In outline:
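Complex spheroids of tumor cells with HUVEC and human MSCs, exposed to iadademstat combined with other agents. Each agent tested in half-log steps from near clinical Cmax (else 10 microM top), DMSO ≤0.25%.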

The mark [1] stands for this setting: curve of first compound, second compound 0.1 µM.
[2] abbreviates: curve of first compound, second compound 0.316 µM.
Setting [3] is: curve of first compound, second compound 1 µM.
Where [4] appears, read: curve of first compound, second compound 3.16 µM.
The mark [5] stands for this setting: curve of first compound, second compound 10 µM.
The mark [6] stands for this setting: second compound 0.1 µM, first compound 0.0316 µM.
Where [7] appears, read: second compound 0.1 µM, first compound 0.1 µM.
[8] abbreviates: second compound 0.316 µM, first compound 0.0316 µM.
Where [9] appears, read: second compound 0.316 µM, first compound 0.1 µM.
Where [10] appears, read: second compound 1 µM, first compound 0.0316 µM.
Where [11] appears, read: second compound 1 µM, first compound 0.1 µM.
Where [12] appears, read: second compound 3.16 µM, first compound 0.0316 µM.
[13] abbreviates: second compound 3.16 µM, first compound 0.1 µM.
The mark [14] stands for this setting: second compound 10 µM, first compound 0.0316 µM.
Setting [15] is: second compound 10 µM, first compound 0.1 µM.

The structures appear in SMILES notation. Several values for one entry are separate records, joined by “and”; a condition that tells them apart may be missing. Identical values can stand only once.
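Further: seven day compound exposure before luminescent viability read.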
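Wherever viability, T/C is given: 100% = DMSO vehicle control wells.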

A word on the IC50: it is the concentration that inhibits the measured activity by half. As a reminder, the viability, T/C is the ratio of treated to control. For the molecule `O=C(C=Cc1cccc(S(=O)(=O)Nc2ccccc2)c1)NO` + NC1CC1c1ccc(-c2cccc(O)c2)cc1, the IC50 is 29.8 nM under setting [1]; < 9.49 nM under setting [2]; 11.7 nM under setting [3]; 11.9 nM under setting [4]; < 9.49 nM under setting [5]. Besides, the viability, T/C was 59.3% (second compound 0.1 µM, first compound 0.00949 µM); 48.9% (second compound 0.1 µM, first compound 0.03 µM); 34.9% (second compound 0.1 µM, first compound 0.0949 µM); 25.2% (second compound 0.1 µM, first compound 0.3 µM); 1.42% (second compound 0.1 µM, first compound 0.949 µM); 0.23% (second compound 0.1 µM, first compound 3 µM). The viability, T/C reads like this: (second compound 0.316 µM, first compound 0.00949 µM) 52.5%; (second compound 0.316 µM, first compound 0.03 µM) 42.6%; (second compound 0.316 µM, first compound 0.0949 µM) 38.6%; (second compound 0.316 µM, first compound 0.3 µM) 24.9%; (second compound 0.316 µM, first compound 0.949 µM) 1.57%; (second compound 0.316 µM, first compound 3 µM) 0.46%. Further, the viability, T/C by setting is: (second compound 1 µM, first compound 0.00949 µM) 54.4%; (second compound 1 µM, first compound 0.03 µM) 43.4%; (second compound 1 µM, first compound 0.0949 µM) 40.3%; (second compound 1 µM, first compound 0.3 µM) 22.8%; (second compound 1 µM, first compound 0.949 µM) 0.74%; (second compound 1 µM, first compound 3 µM) 0.53%. The viability, T/C reads like this: (second compound 3.16 µM, first compound 0.00949 µM) 52.1%; (second compound 3.16 µM, first compound 0.03 µM) 45.7%; (second compound 3.16 µM, first compound 0.0949 µM) 35.7%; (second compound 3.16 µM, first compound 0.3 µM) 22.8%; (second compound 3.16 µM, first compound 0.949 µM) 0.66%; (second compound 3.16 µM, first compound 3 µM) 0.11%. For the same molecule, the viability, T/C is 45.2% (second compound 10 µM, first compound 0.00949 µM); 36.9% (second compound 10 µM, first compound 0.03 µM); 31.8% (second compound 10 µM, first compound 0.0949 µM); 18.7% (second compound 10 µM, first compound 0.3 µM); 0.41% (second compound 10 µM, first compound 0.949 µM); 0.15% (second compound 10 µM, first compound 3 µM).

For the molecule `CC[C@@]1(O)C(=O)OCc2c1cc1n(c2=O)Cc2cc3c(CN(C)C)c(O)ccc3nc2-1`, the viability, T/C is, setting by setting: (compound 0.000316 µM) 96.8% and 95.3%; (compound 0.001 µM) 79.3% and 94.1%; (compound 0.00316 µM) 54.4% and 57.1%; (compound 0.01 µM) 21.4% and 21.1%; (compound 0.0316 µM) 9.12% and 10.3%; (compound 0.1 µM) 4.35% and 3.55%. Besides, under “curve of compound”, the IC50 was 3.45 nM and 4.11 nM.

`O=C(c1cc(Cc2n[nH]c(=O)c3ccccc23)ccc1F)N1CCN(C(=O)C2CC2)CC1` + NC1CC1c1ccc(-c2cccc(O)c2)cc1: the IC50 under setting [1] turned out to be 4420 nM; the IC50 under setting [2] worked out at 2650 nM; the IC50 under setting [3] stood at 2180 nM; the IC50 under setting [4] came out at 1390 nM; the concentration for half-maximal inhibition (IC50) under setting [5] turned out to be 278 nM. Also, the viability, T/C was 89.5% under setting [6]; 104% under setting [7]; 78.8% (second compound 0.1 µM, first compound 0.316 µM); 74.3% (second compound 0.1 µM, first compound 1 µM); 58.1% (second compound 0.1 µM, first compound 3.16 µM); 33.1% (second compound 0.1 µM, first compound 10 µM). For the same molecule, the viability, T/C under setting [8] was 75%; the viability, T/C under setting [9] was 67.8%; the viability, T/C (second compound 0.316 µM, first compound 0.316 µM) was 67%; the viability, T/C (second compound 0.316 µM, first compound 1 µM) is 68.9%; the viability, T/C (second compound 0.316 µM, first compound 3.16 µM) was 46.6%; the viability, T/C (second compound 0.316 µM, first compound 10 µM) is 31.2%. Also, the viability, T/C under setting [10] was 60.1%; the viability, T/C under setting [11] was 69.2%; the viability, T/C (second compound 1 µM, first compound 0.316 µM) was 64.5%; the viability, T/C (second compound 1 µM, first compound 1 µM) was 64.5%; the viability, T/C (second compound 1 µM, first compound 3.16 µM) is 43.1%; the viability, T/C (second compound 1 µM, first compound 10 µM) is 32.3%. The viability, T/C was 64.5% under setting [12]; 60.1% under setting [13]; 63% (second compound 3.16 µM, first compound 0.316 µM); 54.1% (second compound 3.16 µM, first compound 1 µM); 39% (second compound 3.16 µM, first compound 3.16 µM); 32.8% (second compound 3.16 µM, first compound 10 µM). Also, the viability, T/C is 61.3% under setting [14]; 51.2% under setting [15]; 53.6% (second compound 10 µM, first compound 0.316 µM); 42.2% (second compound 10 µM, first compound 1 µM); 34% (second compound 10 µM, first compound 3.16 µM); 29.6% (second compound 10 µM, first compound 10 µM).

As for `CC(C)CC(NC(=O)C(Cc1ccccc1)NC(=O)c1cnccn1)B(O)O` (centres undefined) + NC1CC1c1ccc(-c2cccc(O)c2)cc1, the half-maximal inhibitory concentration (IC50) was < 0.316 nM under setting [1]; < 0.316 nM under setting [2]; < 0.316 nM under setting [3]; < 0.316 nM under setting [4]; < 0.316 nM under setting [5]. The viability, T/C was 21.2% (second compound 0.1 µM, first compound 0.000316 µM); 1.11% (second compound 0.1 µM, first compound 0.001 µM); 0.47% (second compound 0.1 µM, first compound 0.00316 µM); 0.39% (second compound 0.1 µM, first compound 0.01 µM); 0.14% under setting [6]; 0.17% under setting [7]. Further, the viability, T/C runs as follows: (second compound 0.316 µM, first compound 0.000316 µM) 18.8%; (second compound 0.316 µM, first compound 0.001 µM) 1.91%; (second compound 0.316 µM, first compound 0.00316 µM) 0.24%; (second compound 0.316 µM, first compound 0.01 µM) 0.18%; under setting [8], 0.18%; under setting [9], 0.17%. Further, the viability, T/C by setting is: (second compound 1 µM, first compound 0.000316 µM) 16.9%; (second compound 1 µM, first compound 0.001 µM) 1.68%; (second compound 1 µM, first compound 0.00316 µM) 0.21%; (second compound 1 µM, first compound 0.01 µM) 0.19%; under setting [10], 0.22%; under setting [11], 0.17%. Besides, the viability, T/C reads like this: (second compound 3.16 µM, first compound 0.000316 µM) 15.4%; (second compound 3.16 µM, first compound 0.001 µM) 0.61%; (second compound 3.16 µM, first compound 0.00316 µM) 0.17%; (second compound 3.16 µM, first compound 0.01 µM) 0.14%; under setting [12], 0.46%; under setting [13], 0.31%. The viability, T/C runs as follows: (second compound 10 µM, first compound 0.000316 µM) 12.3%; (second compound 10 µM, first compound 0.001 µM) 0.8%; (second compound 10 µM, first compound 0.00316 µM) 0.29%; (second compound 10 µM, first compound 0.01 µM) 0.54%; under setting [14], 0.45%; under setting [15], 0.25%.

For the molecule `Nc1ncn(C2CC(O)C(CO)S2)c(=O)n1` (centres undefined), the viability, T/C is 96.5% and 102% (compound 0.000949 µM); 104% and 92.4% (compound 0.003 µM); 84% and 88.4% (compound 0.00949 µM); 72.4% and 80.4% (compound 0.03 µM); 43.5% and 45.3% (compound 0.0949 µM); 13.5% and 13.6% (compound 0.3 µM). For the setting “curve of compound”, the IC50 was 72.5 nM and 83.7 nM.
